Measured values: patent US20140225048A1, “LIQUID COMPOSITION, AND COLOR-FILTER RESIST COMPOSITION, THERMAL-TRANSFER RECORDING SHEET AND INK WHICH MAKE USE OF THE LIQUID COMPOSITION” (CANON KABUSHIKI KAISHA, priority 2011, published 2014)

Experiment: Examination of solubility of compounds in toluene
Settings: in toluene at room temperature

Structure (SMILES) | Solubility
Cn1c(=O)cc2c3c(c(Nc4ccccc4)ccc31)C(=O)c1ccccc1-2 [(1)] | ≦1%
CCCCC(CC)CNc1ccc2c3c(cc(=O)n2CC(CC)CCCC)-c2ccccc2C(=O)c13 (stereo not drawn) [Compound (5)] | ≧10%^
O=C1c2ccccc2-c2cc(=O)n(C3CCCCC3)c3ccc(NC4CCCCC4)c1c23 [(5)] | ≦0.1% ^
CCCCC(CC)CNc1ccc2c3c(cc(=O)n2C)-c2ccccc2C(=O)c13 (stereo not drawn) [Compound (1)] | 5%
CCCCn1c(=O)cc2c3c(c(NCCC4=CCCCC4)ccc31)C(=O)c1ccccc1-2 [Compound (9)] | ≧10%^
CCCCCCCCCCCCNc1ccc2c3c(cc(=O)n2CCCC)-c2ccccc2C(=O)c13 [Compound (8)] | ≧10%^
Cc1ccc(Nc2ccc3c4c(cc(=O)n3C)-c3ccccc3C(=O)c24)cc1 [(2)] | ≦1%
Cc1ccc(Nc2ccc3c4c(cc(=O)n3-c3ccc(C)cc3)-c3ccccc3C(=O)c24)cc1 [(4)] | ≦1%
Cc1cccc(Nc2ccc3c4c(cc(=O)n3C)-c3ccccc3C(=O)c24)c1 [(3)] | ≦1%
